Tests used:
[1] = target: hSTING-WT (Homo sapiens (Human), UniProt Q86WV6, H232R); assay: Radiometric filtration binding competition assay, hSTING-WT
[2] = target: mSTING-R232 (Mus musculus, UniProt Q3TBT3); assay: STING differential scanning fluorimetry (DSF) assay, mouse STING; conditions: net shift in melting temperature
[3] = target: hSTING-R232 (Homo sapiens (Human), UniProt Q86WV6, H232R); assay: STING differential scanning fluorimetry (DSF) assay, WT human STING; conditions: WT (R232) human STING aa140-379, net shift in melting temperature
Chain of hSTING-R232 (Q86WV6 140-379 H232R): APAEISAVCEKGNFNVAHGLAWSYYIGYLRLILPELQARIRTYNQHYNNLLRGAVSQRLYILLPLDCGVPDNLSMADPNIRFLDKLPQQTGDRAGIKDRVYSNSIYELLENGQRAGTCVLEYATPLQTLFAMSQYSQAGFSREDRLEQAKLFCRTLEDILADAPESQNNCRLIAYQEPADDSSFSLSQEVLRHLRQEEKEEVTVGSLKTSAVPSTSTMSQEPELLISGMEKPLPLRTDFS
Protocol: A STING DSF assay was performed to determine protein thermostability shift in response to small molecule ligand binding. A STING thermostability shift assay based on differential scanning fluorimetry was used to measure (1) the net shift in melting temperature (ΔTm)between the apo and ligand-bound states of the STING protein and (2) the concentration of the thermal denaturation transition (EC50) as a surrogate measure of binding affinity (K). […] Protein in assay buffer was transferred to a 384 well plate and incubated with the hydrophobic fluorescent dye SYBR Orange. A temperature ramp was applied to the plate and the resulting dye fluorescence was plotted as a function of temperature. The first derivative of this function (dF/dT) was then used to extrapolate the melting temperature of the protein at various concentrations of compound and determine the thermal denaturation profile of a protein/compound complex.
• 1. Protein construct (affinity tag removal vs SUMO-fusion construct) • 2. Protein concentration • 3. Dye concentration • 4. Buffer • 5. Thermal ramp velocity • 6. DMSO tolerance • 7. Compound titration parameters • 8. […] 5 μM purified Target STING Protein • 3. 8 μM Sypro Orange Dye • 4. Buffer: 100 mM NaCl, 30 mM HEPES, pH 7.5 • 5. Thermal Ramp: 0.5° C./min • 6. <1% DMSO • 7. 11 point, 2 fold dilution, duplicate, 300 μM high concentrations • 8.

[4] = target: STING protein (Homo sapiens (Human), UniProt Q86WV6, H232R); assay: Cell based reporter assay of IRF activation (IRF-luciferase), THP1-dual-KI R232; conditions: read-out: THP1-dual-KI R232_IRF(Luciferase)_Activity Maximum measured (%)
Chain of STING protein (Q86WV6 whole entry H232R): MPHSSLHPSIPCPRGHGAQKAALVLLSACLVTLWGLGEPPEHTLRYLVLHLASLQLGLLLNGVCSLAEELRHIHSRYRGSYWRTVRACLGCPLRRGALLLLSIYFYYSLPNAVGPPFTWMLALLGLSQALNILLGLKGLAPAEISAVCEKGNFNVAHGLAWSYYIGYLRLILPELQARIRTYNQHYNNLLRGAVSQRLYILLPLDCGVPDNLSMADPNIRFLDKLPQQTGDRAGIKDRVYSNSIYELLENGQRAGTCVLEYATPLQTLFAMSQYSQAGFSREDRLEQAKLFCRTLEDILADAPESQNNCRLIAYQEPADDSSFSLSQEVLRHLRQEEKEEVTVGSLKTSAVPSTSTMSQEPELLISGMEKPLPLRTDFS

Chain of hSTING-WT (Q86WV6 140-379 H232R): as the sequence (Q86WV6 140-379 H232R) above

**Q.** For `CC1(C)CCCC(c2ccc3c(=O)c4ccc(Cl)c(Cl)c4n(CC(=O)O)c3c2)C1` (stereo not drawn) [Compound 158], which IC50 [1] is on record?
**A.** < 20 µM

**Q.** What about the “MOUSE DSF_6xHIS-SUMO Tm Shift (° C.)” value [2] of the same molecule?
**A.** D (“D” > 15° C.)

**Q.** What about the “WT_DSF_hSWAT Tm Shift (° C.)” value [3] of the same molecule?
**A.** C (“C” = 2-7° C,)

**Q.** What about the Emax [4] of the same molecule?
**A.** < 5%

**Q.** With `CC(C)(C)CNc1ccc2c(=O)c3ccc(Cl)c(Cl)c3n(CC(=O)O)c2c1` [Compound 138] as the molecule, how does the IC50 [1] read?
**A.** 20 to 100 µM

**Q.** And the “MOUSE DSF_6xHIS-SUMO Tm Shift (° C.)” value [2]?
**A.** C (“C” = 5-15° C.)

**Q.** And the “WT_DSF_hSWAT Tm Shift (° C.)” value [3]?
**A.** C (“C” = 2-7° C,)

**Q.** What about the Emax [4] of the same molecule?
**A.** > 50%

**Q.** How did the IC50 [1] turn out when `Cc1ccc2c(=O)c3ccc(Cl)cc3n(C(C)C(=O)O)c2c1` (stereo not drawn) [Compound 171] was run?
**A.** > 300 µM

**Q.** What about the “MOUSE DSF_6xHIS-SUMO Tm Shift (° C.)” value [2] of the same molecule?
**A.** B (“B” = 0-5° C.)

**Q.** What about the “WT_DSF_hSWAT Tm Shift (° C.)” value [3] of the same molecule?
**A.** A (“A” < 0° C.)

**Q.** What about the Emax [4] of the same molecule?
**A.** < 5%

**Q.** `O=C(O)Cn1c2cc(-c3cccc(Cl)n3)ccc2c(=O)c2ccc(Cl)c(Cl)c21` [Compound 162] was tested. Which IC50 [1] did it give?
**A.** 100 to 300 µM

**Q.** What about the “MOUSE DSF_6xHIS-SUMO Tm Shift (° C.)” value [2] of the same molecule?
**A.** C (“C” = 5-15° C.)

**Q.** What about the “WT_DSF_hSWAT Tm Shift (° C.)” value [3] of the same molecule?
**A.** A (“A” < 0° C.)

**Q.** And the Emax [4]?
**A.** < 5%

**Q.** Which IC50 [1] does the source give for `CC(C)c1ccc(-c2ccc3c(c2)c(=O)c2ccc(Cl)c(Br)c2n3CC(=O)O)cc1` [Compound 109] here?
**A.** 20 to 100 µM

**Q.** What about the “MOUSE DSF_6xHIS-SUMO Tm Shift (° C.)” value [2] of the same molecule?
**A.** B (“B” = 0-5° C.)

**Q.** And the “WT_DSF_hSWAT Tm Shift (° C.)” value [3]?
**A.** B (“B” = 0-2° C.)

**Q.** And the Emax [4]?
**A.** < 5%

**Q.** What does the source list for `Cc1ccc(-c2ccc3c(=O)c4ccc(Cl)c(Cl)c4n(CC(=O)O)c3c2)cc1` [Compound 154]?
**A.** IC50 [1]: 100 to 300 µM; MOUSE DSF_6xHIS-SUMO Tm Shift (° C.) [2]: D (“D” > 15° C.); WT_DSF_hSWAT Tm Shift (° C.) [3]: C (“C” = 2-7° C,); Emax [4]: 5 to 25%

**Q.** What does the source list for `O=C(O)Cn1c2cc(NC3CCOCC3)ccc2c(=O)c2ccc(Cl)c(Cl)c21` [Compound 142]?
**A.** IC50 [1]: 100 to 300 µM; MOUSE DSF_6xHIS-SUMO Tm Shift (° C.) [2]: C (“C” = 5-15° C.); WT_DSF_hSWAT Tm Shift (° C.) [3]: C (“C” = 2-7° C,); Emax [4]: < 5%

**Q.** Which IC50 [1] does the source give for `CC(C)c1ccc2c(=O)c3ccc(Br)c(Cl)c3n(CC(=O)O)c2c1` [Compound 170] here?
**A.** 20 to 100 µM

**Q.** What about the “MOUSE DSF_6xHIS-SUMO Tm Shift (° C.)” value [2] of the same molecule?
**A.** C (“C” = 5-15° C.)

**Q.** And the “WT_DSF_hSWAT Tm Shift (° C.)” value [3]?
**A.** B (“B” = 0-2° C.)

**Q.** And the Emax [4]?
**A.** 25 to 50%

**Q.** What does the source list for `CC1(C)CCC=C(c2ccc3c(=O)c4ccc(Cl)c(Cl)c4n(CC(=O)O)c3c2)C1` [Compound 157]?
**A.** IC50 [1]: 20 to 100 µM; MOUSE DSF_6xHIS-SUMO Tm Shift (° C.) [2]: D (“D” > 15° C.); WT_DSF_hSWAT Tm Shift (° C.) [3]: C (“C” = 2-7° C,); Emax [4]: < 5%

**Q.** Which IC50 [1] does the source give for `O=C(O)Cn1c2cc(-c3ccncc3)ccc2c(=O)c2ccc(Cl)c(Cl)c21` [Compound 189] here?
**A.** 100 to 300 µM

**Q.** And the “MOUSE DSF_6xHIS-SUMO Tm Shift (° C.)” value [2]?
**A.** C (“C” = 5-15° C.)

**Q.** And the “WT_DSF_hSWAT Tm Shift (° C.)” value [3]?
**A.** C (“C” = 2-7° C,)

**Q.** What about the Emax [4] of the same molecule?
**A.** 5 to 25%

**Q.** `CC(C)c1ccc2c(=O)c3ccc(C#N)c(Cl)c3n(CC(=O)O)c2c1` [Compound 145] was tested. Which IC50 [1] did it give?
**A.** 100 to 300 µM

**Q.** What about the “MOUSE DSF_6xHIS-SUMO Tm Shift (° C.)” value [2] of the same molecule?
**A.** A (“A” < 0° C.)

**Q.** What about the “WT_DSF_hSWAT Tm Shift (° C.)” value [3] of the same molecule?
**A.** A (“A” < 0° C.)

**Q.** And the Emax [4]?
**A.** < 5%

**Q.** For `COc1ccc2c(c1C)c(=O)c1ccc(Cl)c(Cl)c1n2CC(=O)O` [Compound 133], which IC50 [1] is on record?
**A.** 100 to 300 µM

**Q.** What about the “MOUSE DSF_6xHIS-SUMO Tm Shift (° C.)” value [2] of the same molecule?
**A.** B (“B” = 0-5° C.)

**Q.** What about the “WT_DSF_hSWAT Tm Shift (° C.)” value [3] of the same molecule?
**A.** A (“A” < 0° C.)

**Q.** For `CC(C)(C)CNc1ccc2c(=O)c3ccc(Cl)c(Br)c3n(CC(=O)O)c2c1` [Compound 148], which IC50 [1] is on record?
**A.** 20 to 100 µM

**Q.** What about the “MOUSE DSF_6xHIS-SUMO Tm Shift (° C.)” value [2] of the same molecule?
**A.** C (“C” = 5-15° C.)

**Q.** What about the “WT_DSF_hSWAT Tm Shift (° C.)” value [3] of the same molecule?
**A.** C (“C” = 2-7° C,)

**Q.** What about the Emax [4] of the same molecule?
**A.** 25 to 50%

**Q.** How did the IC50 [1] turn out when `O=C(O)Cn1c2ccccc2c(=O)c2cccc(Br)c21` [Compound 130] was run?
**A.** > 300 µM

**Q.** And the “MOUSE DSF_6xHIS-SUMO Tm Shift (° C.)” value [2]?
**A.** C (“C” = 5-15° C.)

**Q.** And the “WT_DSF_hSWAT Tm Shift (° C.)” value [3]?
**A.** B (“B” = 0-2° C.)

**Q.** How did the IC50 [1] turn out when `O=C(O)Cn1c2cc(NC3CCNCC3)ccc2c(=O)c2ccc(Cl)c(Cl)c21` [Compound 143] was run?
**A.** > 300 µM

**Q.** What about the “MOUSE DSF_6xHIS-SUMO Tm Shift (° C.)” value [2] of the same molecule?
**A.** B (“B” = 0-5° C.)

**Q.** What about the “WT_DSF_hSWAT Tm Shift (° C.)” value [3] of the same molecule?
**A.** B (“B” = 0-2° C.)

**Q.** With `Cc1ccc2c(=O)c3ccc(Cl)cc3n([C@H](C)C(=O)O)c2c1` [Compound 179] as the molecule, how does the IC50 [1] read?
**A.** 100 to 300 µM

**Q.** What about the “MOUSE DSF_6xHIS-SUMO Tm Shift (° C.)” value [2] of the same molecule?
**A.** B (“B” = 0-5° C.)

**Q.** What about the “WT_DSF_hSWAT Tm Shift (° C.)” value [3] of the same molecule?
**A.** A (“A” < 0° C.)

**Q.** What does the source list for `COc1cccc2c(=O)c3ccccc3n(CC(=O)O)c12` [Compound 131]?
**A.** IC50 [1]: > 300 µM; MOUSE DSF_6xHIS-SUMO Tm Shift (° C.) [2]: A (“A” < 0° C.); WT_DSF_hSWAT Tm Shift (° C.) [3]: A (“A” < 0° C.)

Source: patent US11414387B2, “Oxoacridinyl acetic acid derivatives and methods of use” (Stingthera, Inc., priority 2017, dated 2022)
